Test results: PubChem BioAssay (NCI)
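Five concentrations, 48 hours, 96-well plates. GI50 = concentration required for 50% inhibition of growth. TGI denotes the concentration required for complete inhibition of growth.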

Tests used:
Assay in all cases: NCI-60 cell line screen, 48 h
CAKI-1 renal = test system: CAKI-1 renal
HCT-116 colon = test system: HCT-116 colon
HOP-62 NSCLC = test system: HOP-62 NSCLC
HT29 colon = test system: HT29 colon
KM12 colon = test system: KM12 colon
RPMI-8226 leukemia = test system: RPMI-8226 leukemia
RXF 393 renal = test system: RXF 393 renal
SN12C renal = test system: SN12C renal
SK-MEL-2 melanoma = test system: SK-MEL-2 melanoma
CCRF-CEM leukemia = test system: CCRF-CEM leukemia

SMILES	TGI (CAKI-1 renal) [µM]	TGI (HCT-116 colon) [µM]	TGI (HOP-62 NSCLC) [µM]	TGI (HT29 colon) [µM]	TGI (KM12 colon) [µM]	TGI (RPMI-8226 leukemia) [µM]	TGI (RXF 393 renal) [µM]	TGI (SN12C renal) [µM]	GI50 (CAKI-1 renal) [µM]	GI50 (HCT-116 colon) [µM]	GI50 (HOP-62 NSCLC) [µM]	GI50 (HT29 colon) [µM]	GI50 (KM12 colon) [µM]	GI50 (RPMI-8226 leukemia) [µM]	GI50 (RXF 393 renal) [µM]	GI50 (SK-MEL-2 melanoma) [µM]	TGI (SK-MEL-2 melanoma) [µM]	GI50 (SN12C renal) [µM]	GI50 (CCRF-CEM leukemia) [µM]	TGI (CCRF-CEM leukemia) [µM]
NC(=S)NNc1c([N+](=O)[O-])cnn(-c2ccccc2)c1=O	33.9	22.1	34.4	35.1	28.2	> 100	33.9	31.4												
CN(C)CCCNC(=O)c1ccc2c(c1)oc1cc3ccccc3c(=O)n12	28.6	> 50	> 50	27.7	> 50	> 50	18.2	43.4	11	19.3	> 50	12.7	19.1	17.1	6.85	9.3	32.6	15.4		
CC[O-].CC[O-].O=S(=O)([O-])c1ccc([O-])c2ncccc12.O=S(=O)([O-])c1ccc([O-])c2ncccc12.[Ti+4]	> 100	> 100	> 100	> 100	> 100	> 100		> 100	> 100	41.1	44	52.8	96.5	> 100		> 100	> 100	> 100	53.3	> 100
Cc1c(C(=O)NCCN2CCOCC2)cn2ncnc(Oc3ccc(NC(=O)Nc4ccc(Cl)c(C(F)(F)F)c4)cc3)c12	2.92	2.1	3.92	> 100		3.01	2.73		1.46	0.711	1.99	1.57		0.545	1.22					
CCCCN(CCCC)c1c([N+](=O)[O-])c(=O)nc2ccccn12		> 100	73.6	> 100	> 100	> 100		> 100									> 100			> 100
COC(=O)c1nc(Cl)nc(Cl)c1Cl	32.1	33.2	> 100	50.2	47.3	63.6	28.2	45.1												27.7
OCCNc1ncnc2c1ncn2Cc1cccc(COc2cccc(OCc3cccc(Cn4cnc5c(NCCO)ncnc54)c3)c2)c1	42.1	22.3		16.5	38.8	27.8		34.5	18.4	10.2		4.05	13.3	6.47		16	35.2	17	11.3	33.1
O=c1cccc(C2CC(CO)C3CCCCN3C2)[nH]1 (stereo unspecified)	> 100	> 100		> 100	> 100	> 100		> 100									> 100			> 100
CCN(CC)C(=S)SC		> 100	> 100	> 100		> 100	> 100	> 100									> 100			> 100
COc1cc(C(=O)Nc2cc3c(cc2Oc2cc(C)cc(C)c2)C(=O)N(C)[C@@H](CC(=O)N(C)O)C(=O)N3)c(Br)c(OC)c1OC	2.58	< 0.00333	0.00372	< 0.00333	0.0394	< 0.00333	0.00609	< 0.00333	0.496	< 0.00333	< 0.00333	< 0.00333	< 0.00333	< 0.00333	< 0.00333	< 0.00333	< 0.00333	< 0.00333		
OC1(c2ccccc2)OC(C#Cc2ccccc2)(c2ccccc2)c2ccccc21 (stereo unspecified)	13.9	3.07	28.8	4.38	2.99	6.62	5.58	10.2												> 100
C/C(=N\N(c1ccccc1)c1ccccc1)c1c(O)cc(C)oc1=O	> 100	> 100	> 100	> 100	> 100			> 100									> 100			> 100
O=C1C(c2ccccc2)=[N+]([O-])c2ccccc21		> 100	37.4	42.1	55.2	56.9		34.2									28.3			> 100
Cc1cc(S(=O)(=O)NC#N)c(S/C(=N\Nc2ccc([N+](=O)[O-])cc2)c2ccc(Cl)cc2)cc1Cl	> 100	26	> 100		56.9	> 100	> 100	> 100	36.1	11.2	41.6		24.6	30.5	34.4	> 100	> 100	> 100	32.1	> 100
C[C@]12CCCC(=O)C1(O)C[C@H](C(=O)O)CC2 (stereo partly specified)	> 100	> 100	> 100	> 100	> 100	> 100		> 100									> 100			> 100
COC1OC(CO)C(O)C1N (stereo unspecified)	> 100	> 100	> 100	> 100	> 100		> 100	> 100												> 100
COC(=O)c1ccccc1NC(=O)C(=O)NNC(=O)c1ccncc1	> 100	> 100	> 100	> 100	> 100		> 100	> 100												> 100
N.N.N.N.O=C([O-])C(Cl)Cl.O=C([O-])C(Cl)Cl.[Co+3].[O-][Cl+3]([O-])([O-])[O-]		> 100	> 100	> 100	> 100	> 100		> 100		> 100	> 100	> 100	> 100	> 100		> 100	> 100	> 100	> 100	> 100
COC1C2C=CC(C2)[C@H]1[N+](=O)[O-] (stereo partly specified)	> 100	> 100	> 100	> 100	> 100		> 100	> 100									> 100			> 100
